SMILES strings stand for the structures.

Format in all cases: functional
The test system of assay [1] is Cortical neurone. The assay can be described thus: Neuroprotective activity against Sprague-Dawley rat cortical neurons assessed as glutamate-induced LDH release at 1 uM for 1 hr before glutamate challenge measured after 24 hrs by spectrophotometry. For orientation: LDH in the medium is a marker of cell lysis.
In assay [2] the test system is Cortical neurone. Description: Neuroprotective activity against Sprague-Dawley rat cortical neurons assessed as glutamate-induced LDH release at 10 uM for 1 hr before glutamate challenge measured after 24 hrs by spectrophotometry.
Assay [3] concerns Cortical neurone. Description: Neuroprotective activity against Sprague-Dawley rat cortical neurons assessed as glutamate-induced LDH release at 0.1 uM for 1 hr before glutamate challenge measured after 24 hrs by spectrophotometry.

Turning to `COc1ccc(/C=C/C(=O)O[C@@]2(C)C[C@@H](O)[C@]3(O)C=CO[C@@H](O[C@@H]4O[C@H](CO)[C@@H](O)[C@H](O)[C@H]4O)[C@@H]32)cc1`, the Activity in the assay with Cortical neurone [1] worked out at 61.8%; with Cortical neurone [2] it was 58.9%; with Cortical neurone [3] it was 54.9%.
In the same order, the values of `COc1ccc(/C=C\C(=O)O[C@@]2(C)C[C@@H](O)[C@]3(O)C=CO[C@@H](O[C@@H]4O[C@H](CO)[C@@H](O)[C@H](O)[C@H]4O)[C@@H]32)cc1` are 48.2%, 49.6% and 40.7%.
Take `COc1ccc(/C=C\C(=O)OC[C@H]2O[C@@H](O[C@@H]3OC=C[C@@]4(O)[C@H](O)C[C@](C)(O)[C@@H]34)[C@H](O)[C@@H](O)[C@@H]2O)cc1`: the Activity in the assay on Cortical neurone [1] came out at 47.6%; in the assay with Cortical neurone [2], 46.6%; with Cortical neurone [3], 33.3%.
The matching figures for `COc1ccc(/C=C/C(=O)OC[C@H]2O[C@@H](O[C@@H]3OC=C[C@@]4(O)[C@H](O)C[C@](C)(O)[C@@H]34)[C@H](O)[C@@H](O)[C@@H]2O)cc1`: 60.9%, 60.3% and 39.1%.
As for `N#Cc1cc2c(cc1[N+](=O)[O-])=NC(=O)C(=O)N=2`, the results for the Activity in the assay on Cortical neurone [1], in the assay with Cortical neurone [2] and in the assay on Cortical neurone [3] were 47.3%, 61.6% and 28.1%, respectively.
The matching figures for `NC(CCCP(=O)(O)O)C(=O)O` (racemic): 27.8%, 43.6% and 5.7%.
The matching figures for `C[C@]12N[C@H](Cc3ccccc31)c1ccccc12.O=C(O)/C=C\C(=O)O` [DIZOCILPINE MALEATE]: 61.5%, 83.6% and 31.8%.
Turning to `C[C@]1(O)C[C@@H](O)[C@]2(O)C=CO[C@@H](O[C@H]3O[C@H](CO)[C@@H](O)[C@H](O)[C@H]3O)[C@@H]21` [HARPAGIDE], the Activity in the assay on Cortical neurone [1] is given as 42.2%; in the assay with Cortical neurone [2], 46.2%; in the assay on Cortical neurone [3], 41.4%.
Take `C[C@]1(OC(=O)/C=C/c2ccccc2)C[C@@H](O)[C@]2(O)C=CO[C@@H](O[C@@H]3O[C@H](CO)[C@@H](O)[C@H](O)[C@H]3O)[C@@H]21` [HARPAGOSIDE]: the values for the Activity in the assay with Cortical neurone [1], with Cortical neurone [2] and in the assay with Cortical neurone [3] were 38.5%, 44.7% and 38.2%, respectively.
In the same order, the values of `C[C@]1(OC(=O)/C=C\c2ccccc2)C[C@@H](O)[C@]2(O)C=CO[C@@H](O[C@@H]3O[C@H](CO)[C@@H](O)[C@H](O)[C@H]3O)[C@@H]21` [Z-harpagoside] are 38.8%, 42.5% and 26.4%.

The values are drawn from ChEMBL document CHEMBL1150139, “Four new neuroprotective iridoid glycosides from Scrophularia buergeriana roots” (2002).
